Patent publication US20060173022A1, “Heterocyclic amides, method for the production thereof, substances containing said heterocyclic amides, and use thereof as pesticides” (Bayer CropScience GmbH, priority 2003, published 2006)

melting point: 80 to 82 °C
Structure (SMILES): CO/N=C/CCNC(=O)c1cnccc1C(F)(F)F [Example I, N-(4-Trifluoromethylnicotinoyl)-3-aminopropionaldehyde O-methyl oxime]
